Test results as given in patent publication EP4786487A1, “PEPTIDE” (Peptidream Inc, priority 2023, dated 2025).
Read-outs that look alike come from different tables or passages of the source. Starred links: 1 amine or outer side, 2 acyl side, 3 side chain; linkers in the order of their positions; H or OH if unused. Positions of bridges follow the written chain, without caps; N, C: chain ends. Non-standard residues stand in square brackets, D forms with d. Residues, ends and D or L forms follow the SMILES beside them. *: point of attachment. Trp(6-OH,1-(4-HO2C-Ph)) = N[C@@H](Cc1cn(-c2ccc(C(=O)O)cc2)c2cc(O)ccc12)C(=O)O; Phe(3-OCH2COOH) = N[C@@H](Cc1cccc(OCC(=O)O)c1)C(=O)O; N(CH2CH2CO)Gly = O=C(CN(CCC(=O)[*:3])[*:1])[*:2]; NMePhe(4-CH2NH2) = CN[C@@H](Cc1ccc(CN)cc1)C(=O)O; Piperidine(4-CH2CH2CONH2) = NC(=O)CCC1CCN(*)CC1; Phe(4-COOH) = N[C@@H](Cc1ccc(C(=O)O)cc1)C(=O)O; Bip = N[C@@H](Cc1ccc(-c2ccccc2)cc1)C(=O)O; Gly(N(CH2)3COOH) = O=C(O)CCCNCC(=O)O; NMeY = CN[C@@H](Cc1ccc(O)cc1)C(=O)O; X1 = CCCCCCC[C@H](N[*:1])C(=O)[*:2]; NMeAad = CN[C@@H](CCCC(=O)O)C(=O)O; NMeF = CN[C@@H](Cc1ccccc1)C(=O)O; NMeDab = CN[C@@H](CCN)C(=O)O; NMeDap = CN[C@@H](CN)C(=O)O; NMeA = CN[C@@H](C)C(=O)O; dNMeA = CN[C@H](C)C(=O)O

Columns and labels:
Myostatin = biological target: T1, Myostatin (Homo sapiens, UniProt O14793); experiment: Reporter gene assay for myostatin signaling in HepG2 cell line, Evaluation Procedure (1), myostatin inhibition; format: cell-based
T1 construct: active myostatin (also called mature myostatin) is a homodimer consisting of two C-terminal growth factor domains; purchased R&D systems 788-G8/CF
T1 sequence (O14793 267-375): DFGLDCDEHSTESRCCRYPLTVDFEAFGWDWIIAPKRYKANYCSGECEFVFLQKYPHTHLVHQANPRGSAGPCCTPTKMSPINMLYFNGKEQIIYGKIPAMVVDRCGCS
Procedure: (§1) In this Example, the in vitro myostatin inhibitory effects of the peptides synthesized in Examples 1 and 2 were evaluated using a reporter gene assay for myostatin signaling in HepG2 cell line.
(§2) HepG2 cell line (HB-8065, ATCC) cultured in EMEM (055-08975, WAKO Industries) containing 10% FBS (10270106, Gibco) and 50 µg/mL gentamicin (11980-14, Nacalai Tesque) was seeded in 96-well plates (167008, Thermo) at 2.0 × 10^4 cells/well and incubated in a CO2 incubator (37°C, 5% CO2) for 24 hours. The pGL3(CAGA)12-luc plasmid, namely a pGL3 vector (E1751, Promega) having a luciferase gene inserted downstream of a promoter sequence with 12 CAGA repeats attached, was added to the wells along with a transfection reagent (X-treamGENE9 DNA Transfection Reagent, 6365809001, Roche) at a concentration of 0.04 µg/well. The cell line was cultured in a CO2 incubator (37°C, 5% CO2) for 24 hours for transfection. The medium was discarded and replaced with EMEM containing 50 µL/well of 0.1% bovine serum albumin (A7030, Sigma) and 50 µg/mL gentamicin, and incubated in a CO2 incubator (37°C, 5% CO2) for 2 hours.
(§3) Myostatin (788-G8/C, R&D systems) or GDF-11 (1958-GD-G8/CF, R&D systems) was added so that the final concentrations were those listed in Table 5.
(§4) A 4-fold dilution series of various peptides synthesized in Examples 1 and 2 was added to achieve 0.006-100 nmol/L (myostatin inhibition) and 0.12-2000 nmol/L (GDF-11 inhibition). At this time, blank wells, in which neither myostatin, GDF-11, nor each peptide was added, were also prepared and incubated in a CO2 incubator (37°C, 5% CO2) for 20 to 24 hours.
(§5) The medium containing the cells was removed, and a mixture containing PBS (14190144, Thermo) and a chromogenic substrate One-Glo Luciferase Assay System (E6120, Promega) at a ratio of 1:1 was added to each well at 100 µL/well. This was stirred with a plate shaker for 5 min and transferred to a 384-well plate (3570, Corning) at a volume of 20 µL/well.
(§6) The plate was centrifuged at 1,000 × g for 1 min and the luminescence signal (700 nm luminescence) was measured using a plate reader (Envision 2104, PerkinElmer). Based on the measured values, IC50 values of the peptides were calculated using software (Prism 9, GraphPad). […]
(§7) In this Example, the in vitro myostatin inhibitory effects of the peptides synthesized in Examples 10 and 11 were evaluated according to the Evaluation Procedure (1) in Example 3.

GDF-11 = biological target: T2, GDF-11 (Homo sapiens, UniProt O95390); experiment: Reporter gene assay for myostatin signaling in HepG2 cell line, Evaluation Procedure (1), GDF-11 inhibition; format: cell-based
T2 construct: purchased R&D systems 1958-GD-G8/CF
T2 sequence (O95390 299-407): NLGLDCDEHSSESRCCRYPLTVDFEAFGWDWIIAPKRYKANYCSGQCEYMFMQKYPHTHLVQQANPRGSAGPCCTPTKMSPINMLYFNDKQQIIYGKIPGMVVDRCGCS
Procedure: as §1, §2, §3, §4, §5, §6, §7

[1] = Method D: Myostatin 1.5 ng/mL, read-out: IC50 (Luciferase) Myostatin HepG2
[2] = Method D: GDF-11 1.5 ng/mL, read-out: IC50 (Luciferase) GDF-11 HepG2
[3] = HepG2, luciferase reporter, Evaluation Procedure (1), Method D
[4] = HepG2, luciferase reporter, Evaluation Procedure (1), Method D, read-out: IC50 (Luciferase) GDP-11 HepG2

Row | Compound | IC50 (Myostatin; [1]) | IC50 (GDF-11; [2]) | IC50 (Myostatin; [3]) | IC50 (GDF-11; [4]) | further results
1 | CCCCCCC[C@@H]1NC(=O)[C@@H]2Cc3ccc(cc3)CNC(=O)CC[C@H](NC(=O)CSC[C@H](C(=O)O)NC(=O)[C@H](Cc3ccccc3)N(C)C(=O)[C@H](C)N(C)C1=O)C(=O)N[C@@H](C)C(=O)N[C@@H](Cc1cn(-c3ccc(C(=O)O)cc3)c3cc(O)ccc13)C(=O)N[C@@H](Cc1ccc(O)cc1)C(=O)N(C)[C@@H](Cc1ccccc1)C(=O)N[C@@H]([C@@H](C)CC)C(=O)N1CCC[C@@H]1C(=O)N[C@@H](Cc1cccc(OCC(=O)O)c1)C(=O)N[C@@H](Cc1ccc(C(=O)O)cc1)C(=O)N[C@@H](CCCNC(=N)N)C(=O)N2C [Myostatin_99_v424] ({CH2CO}-EA[Trp(6-OH,1-(4-HO2C-Ph))]Y[NMeF]I[dP][Phe(3-OCH2COOH)][Phe(4-COOH)]R[NMePhe(4-CH2NH2)][X1][NMeA][NMeF][dC]-OH; lactam 1-11; thioether N-15) | 0.04 nM | 15.2 nM |  |  | 
2 | CC[C@H](C)[C@@H]1NC(=O)[C@H](Cc2ccc(O)cc2)N(C)C(=O)[C@H](Cc2ccc(O)cc2)NC(=O)[C@H](Cc2ccc(-c3ccccc3)cc2)NC(=O)[C@H](C)NC(=O)CN(CCCC(=O)O)C(=O)CSC[C@H](C(=O)O)NC(=O)[C@H](Cc2ccccc2)N(C)C(=O)[C@H](C)N(C)C(=O)[C@H](CC(C)C)NC(=O)[C@H](Cc2ccccc2)N(C)C(=O)[C@H](CCCNC(=N)N)NC(=O)[C@H](Cc2ccc(C(=O)O)cc2)NC(=O)[C@H](Cc2cccc(OCC(=O)O)c2)NC(=O)[C@@H](C)N(C)C1=O [Myostatin_99_v118] ({CH2CO}-[Gly(N(CH2)3COOH)]A[Bip]Y[NMeY]I[dNMeA][Phe(3-OCH2COOH)][Phe(4-COOH)]R[NMeF]L[NMeA][NMeF][dC]-OH; thioether N-15) |  |  |  |  | IC50 (Myostatin; Method A: Myostatin 10 ng/mL, read-out: IC50 (Luciferase) Myostatin HepG2): 23.1 nM; IC50 (GDF-11; Method A: GDF-11 10 ng/mL, read-out: IC50 (Luciferase) GDF-11 HepG2): 4030 nM
3 | CCCCCCC[C@@H]1NC(=O)[C@@H]2Cc3ccc(cc3)CNC(=O)CC[C@H](NC(=O)CSC[C@H](C(=O)O)NC(=O)[C@H](Cc3ccccc3)N(C)C(=O)[C@H](C)N(C)C1=O)C(=O)N[C@@H](C)C(=O)N[C@@H](Cc1c[nH]c3ccccc13)C(=O)N[C@@H](Cc1ccc(O)cc1)C(=O)N(C)[C@@H](Cc1ccccc1)C(=O)N[C@@H]([C@@H](C)CC)C(=O)N(C)[C@@H](C)C(=O)N[C@@H](Cc1cccc(OCC(=O)O)c1)C(=O)N[C@@H](Cc1ccc(C(=O)O)cc1)C(=O)N[C@@H](CCCNC(=N)N)C(=O)N2C [Myostatin_99_v358] ({CH2CO}-EAWY[NMeF]I[NMeA][Phe(3-OCH2COOH)][Phe(4-COOH)]R[NMePhe(4-CH2NH2)][X1][NMeA][NMeF][dC]-OH; lactam 1-11; thioether N-15) | 0.17 nM | 52.8 nM |  |  | 
4 | CCCCCCC[C@@H]1NC(=O)[C@H](Cc2ccccc2)N(C)C(=O)[C@H](CCCNC(=N)N)NC(=O)[C@H](Cc2ccc(C(=O)O)cc2)NC(=O)[C@H](Cc2cccc(OCC(=O)O)c2)NC(=O)[C@H](C)N(C)C(=O)[C@H]([C@@H](C)CC)NC(=O)[C@H](Cc2ccccc2)N(C)C(=O)[C@H](Cc2ccc(O)cc2)NC(=O)[C@H](Cc2c[nH]c3ccccc23)NC(=O)[C@H](C)NC(=O)[C@@H]2CC(=O)NCC[C@@H](C(=O)N(C)[C@@H](Cc3ccccc3)C(=O)N[C@@H](C(=O)O)CSCC(=O)N2)N(C)C1=O [Myostatin_99_v367] ({CH2CO}-DAWY[NMeF]I[NMeA][Phe(3-OCH2COOH)][Phe(4-COOH)]R[NMeF][X1][NMeDab][NMeF][dC]-OH; lactam 1-13; thioether N-15) | 0.15 nM | 117 nM |  |  | 
5 | CCCCCCC[C@@H]1NC(=O)[C@H](Cc2ccccc2)N(C)C(=O)[C@H](CCCNC(=N)N)NC(=O)[C@H](Cc2ccc(C(=O)O)cc2)NC(=O)[C@H](Cc2cccc(OCC(=O)O)c2)NC(=O)[C@H]2CCCN2C(=O)[C@H]([C@@H](C)CC)NC(=O)[C@H](Cc2ccccc2)N(C)C(=O)[C@H](Cc2ccc(O)cc2)NC(=O)[C@H](Cc2cn(-c3ccc(C(=O)O)cc3)c3cc(O)ccc23)NC(=O)[C@H](C)NC(=O)[C@H](C)NC(=O)[C@H](C)N(C)C(=O)[C@@H](C)NC(=O)[C@H](Cc2ccccc2)N(C)C(=O)[C@H](C)N(C)C1=O [Myostatin_99_v483] (cyclo(AA[Trp(6-OH,1-(4-HO2C-Ph))]Y[NMeF]I[dP][Phe(3-OCH2COOH)][Phe(4-COOH)]R[NMeF][X1][NMeA][NMeF][dA][NMeA])) |  |  | 0.14 nM | 59.9 nM | 
6 | CCCCCCC[C@@H]1NC(=O)[C@H](Cc2ccccc2)N(C)C(=O)[C@H](CCCNC(=N)N)NC(=O)[C@H](Cc2ccc(C(=O)O)cc2)NC(=O)[C@H](Cc2cccc(OCC(=O)O)c2)NC(=O)[C@H]2CCCN2C(=O)[C@H]([C@@H](C)CC)NC(=O)[C@H](Cc2ccccc2)N(C)C(=O)[C@H](Cc2ccc(O)cc2)NC(=O)[C@H](Cc2cn(-c3ccc(C(=O)O)cc3)c3cc(O)ccc23)NC(=O)[C@H](C)NC(=O)CN(CCCC(=O)O)C(=O)[C@H](C)N(C)C(=O)[C@@H](C)NC(=O)[C@H](Cc2ccccc2)N(C)C(=O)[C@H](C)N(C)C1=O [Myostatin_99_v482] (cyclo(A[Trp(6-OH,1-(4-HO2C-Ph))]Y[NMeF]I[dP][Phe(3-OCH2COOH)][Phe(4-COOH)]R[NMeF][X1][NMeA][NMeF][dA][NMeA][Gly(N(CH2)3COOH)])) |  |  | 0.11 nM | 90.2 nM | 
7 | CCCCCCC[C@@H]1NC(=O)[C@@H]2Cc3ccc(cc3)CNC(=O)CCC[C@@H](C(=O)N[C@@H](C)C(=O)N[C@@H](Cc3cn(-c4ccc(C(=O)O)cc4)c4cc(O)ccc34)C(=O)N[C@@H](Cc3ccc(O)cc3)C(=O)N(C)[C@@H](Cc3ccccc3)C(=O)N[C@@H]([C@@H](C)CC)C(=O)N3CCC[C@@H]3C(=O)N[C@@H](Cc3cccc(OCC(=O)O)c3)C(=O)N[C@@H](Cc3ccc(C(=O)O)cc3)C(=O)N[C@@H](CCCNC(=N)N)C(=O)N2C)N(C)C(=O)[C@H](C)N(C)C(=O)[C@@H](C)NC(=O)[C@H](Cc2ccccc2)N(C)C(=O)[C@H](C)N(C)C1=O [Myostatin_99_v490] (cyclo(A[Trp(6-OH,1-(4-HO2C-Ph))]Y[NMeF]I[dP][Phe(3-OCH2COOH)][Phe(4-COOH)]R[NMePhe(4-CH2NH2)][X1][NMeA][NMeF][dA][NMeA][NMeAad]); lactam 10-16) |  |  | 0.7 nM | 112 nM | 
8 | CCCCCCC[C@@H]1NC(=O)[C@H](Cc2ccccc2)N(C)C(=O)[C@H](CCCNC(=N)N)NC(=O)[C@H](Cc2ccc(C(=O)O)cc2)NC(=O)[C@H](Cc2cccc(OCC(=O)O)c2)NC(=O)[C@H]2CCCN2C(=O)[C@H]([C@@H](C)CC)NC(=O)[C@H](Cc2ccccc2)N(C)C(=O)[C@H](Cc2ccc(O)cc2)NC(=O)[C@H](Cc2cn(-c3ccc(C(=O)O)cc3)c3cc(O)ccc23)NC(=O)[C@H](C)NC(=O)CN2CCC(=O)NC[C@@H](C(=O)N(C)[C@@H](Cc3ccccc3)C(=O)N[C@@H](C(=O)N3CCC(CCC(N)=O)CC3)CSCC2=O)N(C)C1=O [Myostatin_99_v478] ({CH2CO}-[N(CH2CH2CO)Gly]A[Trp(6-OH,1-(4-HO2C-Ph))]Y[NMeF]I[dP][Phe(3-OCH2COOH)][Phe(4-COOH)]R[NMeF][X1][NMeDap][NMeF][dC]-{Piperidine(4-CH2CH2CONH2)}; lactam 1-13; thioether N-15) |  |  | 0.04 nM | 25.5 nM | 
